Data as given in patent US20230416675A1, “EFFICIENT AND RAPID SPECIFICATION OF SPINAL NEURONAL SUBTYPES FROM HUMAN PLURIPOTENT STEM CELLS” (INSERM (INSTITUT NATIONAL DE LA SANTE ET DE LA RECHERCHE …, priority 2020, published 2023).
“Also recorded” adds a separate entry of the source.

Experiments:
Assay type in all cases: cell-based, human
induced PSC (iPSC) line = test: Induction of CDX2-expressing axial progenitors in an induced PSC line; details: CHIR increased from 3 to 4 μM
Protocol: Human PSC embryoid body-based differentiation was performed as previously described (Maury et al., 2015). hPSC were dissociated with cold Accutase (Life Technologies) for 3 to 5 min at 37° C. and resuspended in differentiation medium N2B27 (Advanced DMEM F12, Neurobasal vol:vol (Life Technologies)), supplemented with N2 (Life Technologies), B27 without Vitamin A (Life technologies), penicillin/streptomycin 1%, β-Mercaptoéthanol 0.1% (Life Technologies), with Y-27632 (10 μM, Stemgent or Stem Cell Technologies), CHIR-99021 (3 μM or 4 μM Selleckchem) SB431542 (20 μM, Selleckchem) and LDN 193189 (0.1 μM, Selleckchem). 2×10^5 cells ml^-1 were seeded in ultra-low attachment 6 well plates (Corning) to form embryoid bodies (EBs). All conditions of differentiation received the same medium at day 2 and at day 3 but SB431542 was removed at day 3. Then, the differentiation proceeded according to the […] presented above the figures. SAG (Smoothened Agonist, Merck millipore), FGF2 (Recombinant Human FGF basic, Peprotech), RA (Sigma-Aldrich), GDF11 (Recombinant Human/Murine/Rat GDF11, Peprotech), PD0325901 (Selleckchem), PD173074, SCH772984 (Selleckchem), DAPT (Stemgent) were added at indicated time points. For concentrations see Table S2. Media were changed every other day unless specified. […]

[1] = tested on: HOX genes in hPSC-derived axial progenitors; test: Real time PCR analysis of HOX mRNAs in progenitors; details: for temporal increase of HOXC6, C8 and C9 mRNAs in progenitors: inhibitor at D3, progenitors at D4 and D5
Protocol: (§1) Human PSC embryoid body-based differentiation was performed as previously described (Maury et al., 2015). hPSC were dissociated with cold Accutase (Life Technologies) for 3 to 5 min at 37° C. and resuspended in differentiation medium N2B27 (Advanced DMEM F12, Neurobasal vol:vol (Life Technologies)), supplemented with N2 (Life Technologies), B27 without Vitamin A (Life technologies), penicillin/streptomycin 1%, β-Mercaptoéthanol 0.1% (Life Technologies), with Y-27632 (10 μM, Stemgent or Stem Cell Technologies), CHIR-99021 (3 μM or 4 μM Selleckchem) SB431542 (20 μM, Selleckchem) and LDN 193189 (0.1 μM, Selleckchem). 2×10^5 cells ml^−1 were seeded in ultra-low attachment 6 well plates (Corning) to form embryoid bodies (EBs). All conditions of differentiation received the same medium at day 2 and at day 3 but SB431542 was removed at day 3. Then, the differentiation proceeded according to the schemas presented above the figures. SAG (Smoothened Agonist, Merck millipore), FGF2 (Recombinant Human FGF basic, Peprotech), RA (Sigma-Aldrich), GDF11 (Recombinant Human/Murine/Rat GDF11, Peprotech), PD0325901 (Selleckchem), PD173074, SCH772984 (Selleckchem), DAPT (Stemgent) were added at indicated time points. For concentrations see Table S2. Media were changed every other day unless specified.
Total RNA were extracted (RNAeasy Plus Mini Kit, Qiagen) and cDNA synthesized using SuperScript III (Invitrogen). Quantitative real-time PCR was performed using a 7900HT fast real time PCR system (Applied Biosystems) with Sybr Green PCR Master Mix (Applied Biosystems). Alternatively performed using QuantStudio 5 Real-Time PCR System (Thermofisher Scientific) and a mix with qPCR Brilliant II SYBR MM with low ROX (Agilent). Primers are listed in Supplementary Table 3. All expression data were normalized to Cyclophilin A mRNA. All analyses were performed with three technical replicates per plate. Relative expression levels were determined by calculating 2-ΔΔCt.

[2] = tested on: hPSC-derived axial progenitors; test: Motor neuron (MN) subtype specification: immunostaining of embryoid bodies on day 14 of differentiation, proportion of MNs (ISL1+ cells) expressing HOX/FOXP1/SCIP markers; details: for rostro-caudal identity of MNs generated: inhibitor added at D3 up to D7, RA/SAG at D7; for efficiency of MN generation: inhibitor from D3 to D7, RA/SAG at D7; for MN identities induced: extrinsic cue added on D3 with RA/SAG, all concentrations and durations
Protocol: as §1
EBs were collected, rinsed with PBS then fixed with 4% PFA for 5 min at 4° C. and rinsed with PBS 3 times for 5 min. EBs were cryoprotected with 30% sucrose and embedded in OCT (Leica) prior sectioning with a cryostat. Alternatively, day 2, 3 and 4 progenitors were plated on Matrigel (Corning, diluted according to manufacturer recommendation) coated coverslips and let to adhere between for 30 min prior fixation with 4% PFA for 5 min at 4° C.
All immunostainings were performed as follow: cells or sections were incubated with a saturation solution (PBS/FBS 10%/0.2% Triton) for 10 minutes. Primary antibodies (Table S3) were diluted in staining solution (PBS/2% FBS/0.2% Triton) and incubated overnight at 4° C. in a humidified chamber. Following 4 PBS washes (10 min each), secondary antibodies (Alexa488, Alexa568 and Alexa647, Life Technologies, 1:1,000) were added for 1 h at RT. After 3 PBS washes, DAPI was added on the cells (Invitrogen, 1:3,000) for 5 min. Cells or slices were then mounted in Fluoromount (Sigma Aldrich or Cliniscience).
Samples were visualized and imaged using either a ZEISS LSM 880 Confocal Laser Scanning Microscope (Carl Zeiss Microscopy) controlled by Zen black software (Zeiss), a confocal microscope TCS SP5 II (Leica) or a DM6000 microscope (Leica) equipped with CoolSNAP EZ CDD camera, controlled by MetaMorph software (MetaMorph Inc). Alternatively, images were acquired using the automated microscope Cell Discoverer 7 (Zeiss), equipped with an Axiocam 506 m camera, with Zen black software (Zeiss).
All statistics were computed using Graphpad Prism software. One-way analysis of variance (ANOVA) with a Kruskall-Wallis post hoc analysis were performed following normality tests provided by Prism. In all figures, n are independent differentiations started from independent newly thawed hPSCs vials. For each condition at least 4 independent EBs were imaged in which all the cells were quantified by automated image analysis. The images were exported and saved as TIFF with Fiji if needed (Schindelin et al., 2012). Quantitative analyses on images were performed using the CellProfiler software (Carpenter et al., 2006) (Broad Institute open source at www.cellprofiler.org). DAPI stained nucleus were segmented into primary objects using CellProfiler segmentation pipeline and the nuclear mask was used to define objects on the target channels. The threshold to define positive nuclei for a given target was obtained using EBs' section negative for the target of interest. All images across conditions were then automatically analyzed in batch ensuring unbiased analysis. […]

[3] = FGF2 15 ng/ml D3 to D9 together with RA/SAG
[4] = FGF2 60 ng/ml D3 to D9 together with RA/SAG
[5] = FGF2 120 ng/ml for 24 h from D3, with RA/SAG
[6] = FGF2 120 ng/ml for 48 h from D3, with RA/SAG
[7] = GDF11 25 ng/ml for 24 h with RA on D3 progenitors

## Cc1cnc(-c2cnc(NCCNc3ccc(C#N)cn3)nc2-c2ccc(Cl)cc2Cl)[nH]1 [CHIR, 6-[[2-[[4-(2,4-dichlorophenyl)-5-(5-methyl-1H-imidazol-2-yl)-2 pyrimidinyl]amino]ethyl]amino]-3-pyridinecarbonitrile]
Induced PSC (iPSC) line
  homogenous population of progenitors expressing CDX2 on D3: necessary to generate a homogenous population of progenitors expressing CDX2 on D3

## CCN(CC)CCCCNc1ncc2cc(-c3cc(OC)cc(OC)c3)c(NC(=O)NC(C)(C)C)nc2n1 [PD173074, reference compound]
[1]
  temporal increase of HOXC6, C8 and C9 mRNAs in progenitors: prevent the temporal increase in caudal HOX expression
[2]
  rostro-caudal identity of MNs generated: prevent the specification of HOXC8 and HOXC9 MNs; also recorded: anterior brachial identity (HOXC6)
  efficiency of MN generation: not impacted
[2]; inhibitor from D3 to D7
  number of EBs collected: reduced number of EBs

## O=C(NOC[C@H](O)CO)c1ccc(F)c(F)c1Nc1ccc(I)cc1F [PD0325901, reference compound]
[1]
  temporal increase of HOXC6, C8 and C9 mRNAs in progenitors: blocked this increase at D4 or D5
[1]; listed as PD032590
  temporal increase of HOXC6, C8 and C9 mRNAs in progenitors: prevent the temporal increase in caudal HOX expression
[2]
  rostro-caudal identity of MNs generated: anterior brachial identity (HOXC6)
  efficiency of MN generation: not impacted
[2]; listed as PD032590
  rostro-caudal identity of MNs generated: prevent the specification of HOXC8 and HOXC9 MNs

## FGF2: Recombinant Human FGF basic, Peprotech, accession P09038; FGFR agonist
[1]; 24 h and 48 h post FGF2 treatment
  HOX gene expression compared to RA/SAG controls: precocious increase in HOXC8, HOXC9, HOXD9 and HOXC10 expression
[2]; [3]
  Caudal brachial HOXC8 MNs: 68.2%
  HOXC8 MNs, fold increase: 8.6 fold
[2]; [4]
  HOXC9+/HOXC6- thoracic MNs: 58.9%
  HOXC9+/HOXC6- thoracic MNs, fold increase: 82.5 fold
[2]; FGF2 120 ng/ml D3 to D9 together with RA/SAG
  HOXC6 MNs: reduced slightly more HOXC6 MNs
[2]; [5]
  FOXP1^high/SCIP MNs: 47.9%
  HOXC6 MNs: 49.7%
  HOXC8 MNs: 79.4%
  HOXC9 MNs: 14.7%
[2]; [6]
  FOXP1^high/SCIP MNs: 13.2%
  HOXC6 MNs: 7.5%
  HOXC9 MNs: 76.4%
[2]
  MN identities induced: induce more caudal MN subtypes; also recorded: more caudal MN identities were induced without the need of delaying RA addition

B1: GDF11: Recombinant Human/Murine/Rat GDF11, Peprotech; member of the TGFβ family (protein, UniProt O95390 299-407, looked up)
Growth/differentiation factor …: NLGLDCDEHSSESRCCRYPLTVDFEAFGWDWIIAPKRYKANYCSGQCEYMFMQKYPHTHLVQQANPRGSAGPCCTPTKMSPINMLYFNDKQQIIYGKIPGMVVDRCGCS
[2]; GDF11 25 ng/ml for 24 h or 48 h with RA
  caudal thoracic or lumbar identities: none of the more caudal identities were observed
[2]; [7]
  HOXC8 MNs: 58.7%
  HOXC9 MNs: 41.0%
[2]; GDF11 25 ng/ml for 48 h with RA on D3 progenitors
  anterior thoracic MNs: increasing after 48 h
[2]
  MN identities induced: induce more caudal MN subtypes
